The values that follow come from publication PMC6038798, “Dissecting how modular polyketide synthase ketoreductases interact with acyl carrier protein-attached substrates” (Chemical Communications (Cambridge, England), 2017).

The target of test [1] is mKRb, B1-type ketoreductase (KR) domain from module 7 of MLSB of the mycolactone polyketide synthase (Mycobacterium ulcerans). The experiment in a line: ITC; ACP species injected into a solution of the KR domain in the presence of excess NADPH; three repeat experiments. A general note: In ITC the heat of successive injections is recorded.
Test [2] shares this target. The experiment in a line: ITC; ACP species titrated against the KR domain in the presence of excess NADP+ (oxidised cofactor); three repeat experiments.
In test [3] the target is T1, mKRb (Mycobacterium ulcerans, UniProt Q6MZ72).
T1 construct: gene mlsB; excised B1-type ketoreductase domain of module 7 of MLSB; recombinant, purified
The experiment in a line: isothermal titration calorimetry. The test is classed as binding. The source says: isothermal titration calorimetry on mKRb

Test [4] addresses T2, mKRa (Mycobacterium ulcerans, UniProt Q6MZA4).
T2 construct: gene mlsA1; excised A1-type ketoreductase domain of module 5 of MLSA1; recombinant, purified
The experiment in a line: isothermal titration calorimetry. In kind it is binding. From the text:
isothermal titration calorimetry on mKRa

Bounds are passed on as bounds.

The term Kd denotes the constant that tells how readily two partners part at equilibrium. As for “apo mACPa, acyl carrier protein domain cognate to mKRa (module 5 of MLSA1), apo form (domain or fragment)”, the Kd in test [1] was 2.2 µM. “Acetoacetyl-mACPb (1b) (domain or fragment)”: the dissociation constant (Kd) in test [2] amounted to 0.38 µM. On to holo mACPa (1a) (domain or fragment), for which, in test [1], the Kd was 0.63 µM.

For the compound `NCCS` [compound 5, Cysteamine], the Kd in test [3] and in test [4] was above 1000 µM each time. With `CC(C)(CO)[C@@H](O)C(=O)NCCC(=O)O` [compound 3, Pantothenate], the figures for the dissociation constant (Kd) in test [3] and in test [4] were 0.7 ± 0.1 µM and 0.7 ± 0.13 µM, respectively. Take “β-Hydroxybutyryl-mACPb (1c) (domain or fragment)”: the Kd in test [1] is 0.27 µM.

With `CC(=O)NCCS` [compound 7, N-Acetyl cysteamine], the figures for the Kd in test [3] and in test [4] were 1.4 ± 0.3 µM and 1.03 ± 0.02 µM, respectively. For `CC(C)(CO)[C@@H](O)C(=O)O` [compound 4, Pantoate] the same measures were 0.6 ± 0.1 µM and above 1000 µM.

Consider “apo mACPb, acyl carrier protein domain cognate to mKRb (module 7 of MLSB), apo form (domain or fragment)”, for which the Kd amounted to 2.2 µM in test [2] and 2.6 µM in test [1]. Regarding `NCCC(=O)O` [compound 6, β-Alanine], the values for the Kd in test [3] and in test [4] were 0.5 ± 0.09 µM and 0.97 ± 0.04 µM, respectively. By stoichiometry N is commonly meant a count of units in the complex or per binding partner. Turning to holo mACPb (1a) (domain or fragment), the Kd in test [2] was found to be 0.75 µM. Moreover, in test [1], the Kd was 0.61 µM and the stoichiometry N was 1. Turning to `CC(C)(CO)[C@@H](O)C(=O)NCCC(=O)NCCS` [compound 2, R-Pantetheine], the Kd in test [3] is 1.2 ± 0.3 µM; in test [4], 1.1 ± 0.04 µM.
